The text below walks through data of PubChem BioAssay (NCI).

What all share (experiment): NCI tumour cell line growth inhibition, 48 h
The subject of test [1] is SK-MEL-5 melanoma.
Test [2] relates to K-562 leukemia.
The subject of test [3] is ACHN renal.
Test [4] concerns M14 melanoma.
Test [5] relates to KM12 colon.
Test [6] deals with EKVX NSCLC.
Test [7] relates to CAKI-1 renal.
Test [8] has as its system 786-0 renal.
In test [9] the test system is PC-3 prostate.
Test [10] has as its system MCF7 breast.

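Compound exposure: 48 hours, 5 concentrations, 96-well plates. At the GI50, growth is halved. TGI is the concentration that stops growth completely.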

In the case of `CCOC(=O)/C(C#N)=C\Sc1ccccc1`, the TGI in [1] is greater than 100 µM; in test [2], greater than 100 µM; in test [3], 47.1 µM; in [4] it was 35.6 µM; in test [5] it was greater than 100 µM; in [6], greater than 100 µM. Besides, the figures for the TGI in test [7] and in test [8] were 65.9 µM and 29.1 µM, respectively.
In the case of `CC(C)N1C(C)[C@@H](c2ccccc2)O[P@@]1(=O)CC1=CCCCC1` (some centres not stated), the TGI in test [1], in test [2], in [3], in test [4], in test [5] and in test [6] was greater than 100 µM each time. In test [8], the TGI was greater than 100 µM.
Turning to `Nn1c(-c2cccc(Cl)c2)nc2ccccc2c1=O`, the TGI in test [1], in test [2], in test [3], in test [4], in test [5] and in [6] was greater than 100 µM in each case. For the same compound, the TGI in test [7] and in [8] was greater than 100 µM each time.
`CN(C)N=Nc1cccc(C(N)=O)c1`: the TGI in [1], in test [2], in test [3], in test [4], in test [5] and in test [6] was greater than 100 µM each time. Moreover, the TGI in test [7] and in [8] was greater than 100 µM in each case.
Turning to `CC(=O)[CH-]C(=O)c1ccccc1.CC(=O)[CH-]C(=O)c1ccccc1.CC[C@H](/C=C/C(C)[C@H]1CCC2[C@@H]3CC=C4C[C@@H]([O-])CC[C@]4(C)C3CC[C@@]21C)C(C)C.CC[C@H](/C=C/C(C)[C@H]1CCC2[C@@H]3CC=C4C[C@@H]([O-])CC[C@]4(C)C3CC[C@@]21C)C(C)C.Cl.[Ti+4]` (some centres not stated), the GI50 in test [1], in test [2], in [3], in test [4], in test [5] and in test [6] was greater than 25 µM in each case. Besides, the GI50 is greater than 25 µM in [7] and 23 µM in [8]. Moreover, the TGI in test [1], in [2], in test [3], in [4], in test [5] and in test [6] was greater than 25 µM each time. In addition, the TGI in test [7] and in test [8] was greater than 25 µM throughout.
With `CCn1cc(C(=O)N/N=C/c2cccs2)c(=O)c2cc(F)c(N3CCNC(C)C3)c(F)c21` (configuration not stated), the GI50 was 1.45 µM in test [9]; 1.78 µM in test [1]; 1.67 µM in test [3]; 1.73 µM in test [5]; 1.47 µM in test [6]; 1.66 µM in [7]. Also, in test [8], the GI50 was 1.8 µM. Moreover, the TGI stood at 2.84 µM in test [9]; 3.19 µM in test [1]; 3.04 µM in [3]; 3.27 µM in test [5]; 2.93 µM in [6]; 3.03 µM in test [7]. This compound had a TGI in test [8] of 3.38 µM.
Take `CC(=O)c1ccc2c3c1[C@H]1O[C@H]1c1cccc(c1-3)[C@@H]1O[C@H]21`: the TGI in test [1] was 5.39 µM; in [2], greater than 35.2 µM; in test [3], 3.79 µM; in [4], 3.38 µM; in test [5], 5.31 µM; in test [6] it was 4.03 µM. For the same compound, the values for the TGI in test [10], in test [7] and in [8] were greater than 33.5 µM, 2.67 µM and 4 µM, respectively. The GI50 in test [8] is 1.74 µM.
Turning to `CN(CCCN1C(=O)c2cccc3cc([N+](=O)[O-])cc(c23)C1=O)CCN(C)CCCN1C(=O)c2cccc3cc([N+](=O)[O-])cc(c23)C1=O`, the TGI in test [1], in test [2], in test [3], in test [4], in [5] and in test [6] was greater than 39.3 µM each time. For the same compound, the TGI in test [7] and in test [8] was greater than 39.3 µM each time.
Turning to `COc1cc([C@@H]2OC(=O)C3C2C(=O)O[C@H]3c2ccc(O)c(OC)c2)ccc1O` (some centres not stated), the TGI in test [1], in test [2], in test [3], in [4], in [5] and in test [7] was greater than 100 µM throughout. For the same compound, the TGI in test [8] is greater than 100 µM.
For `C=CCC(N[C@H](CO)c1ccccc1)c1ccccn1` (some centres not stated), the GI50 in [9], in test [1], in test [2], in test [3], in test [4] and in test [5] was greater than 100 µM throughout. Further, the GI50 in test [6], in [7] and in test [8] was greater than 100 µM in each case. The TGI in [9], in test [1], in test [2], in [3], in [4] and in [5] was greater than 100 µM in each case. Also, the TGI in test [6], in test [7] and in [8] was greater than 100 µM throughout.
As for `COc1cc2c3c(n([C@@H]4CCOC4)c(=O)c2cc1OC)-c1cc2c(cc1C3=O)OCO2`, the GI50 is 0.0166 µM in test [2], less than 0.01 µM in [4], less than 0.01 µM in [10] and less than 0.01 µM in test [8]. The TGI in test [2] was greater than 100 µM; in test [4] it was greater than 100 µM; in [10], greater than 100 µM; in [8], 0.0183 µM.
On to `COc1cccc2c(SCC(=O)Nc3ccccc3-c3ccccc3NC(=O)CSc3c4ccccc4nc4c(OC)cccc34)c3ccccc3nc12`, for which the TGI was greater than 100 µM in test [1]; greater than 100 µM in [2]; greater than 100 µM in test [3]; greater than 100 µM in test [4]; greater than 100 µM in test [5]; 95 µM in test [6]. The compound further yielded a TGI in test [8] greater than 100 µM.
For `CCCCCCCCC(C)CCCCCCCCC(=O)OCC(COP(=O)([O-])OCC[N+](C)(C)C)OC(=O)CCCCCCCCC(C)CCCCCCCC` (configuration not stated), the TGI in [1], in test [2], in test [3], in [4], in test [5] and in test [6] was greater than 100 µM in each case. Further, the TGI in test [7] and in test [8] was greater than 100 µM each time.
